PubChem BioAssay (NCI)
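Test compounds were applied to cells in 96-well plates for 48 hours at 5 doses. GI50 is the concentration that inhibits growth by half. TGI: concentration producing complete growth inhibition.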

Key:
Test in all cases: inhibition of tumour cell growth, NCI panel, 48 h
[1] = tested on: A549 NSCLC
[2] = tested on: SF-268 CNS
[3] = tested on: NCI-H23 lung
[4] = tested on: CAKI-1 renal
[5] = tested on: OVCAR-8 ovarian
[6] = tested on: OVCAR-4 ovarian
[7] = tested on: SK-MEL-28 melanoma
[8] = tested on: DU-145 prostate
[9] = tested on: MDA-MB-231 breast
[10] = tested on: RPMI-8226 leukemia

Row | SMILES | GI50 [1] [µM] | TGI [1] [µM] | GI50 [2] [µM] | TGI [2] [µM] | GI50 [3] [µM] | TGI [3] [µM] | GI50 [4] [µM] | TGI [4] [µM] | GI50 [5] [µM] | TGI [5] [µM] | GI50 [6] [µM] | TGI [6] [µM] | GI50 [7] [µM] | TGI [7] [µM] | GI50 [8] [µM] | TGI [8] [µM] | GI50 [9] [µM] | TGI [9] [µM] | GI50 [10] [µM] | TGI [10] [µM]
1 | O=[N+]([O-])c1cc(S(=O)(=O)Oc2ccccc2)ccc1Cl | 3.43 | 14.5 | 1.83 | 3.4 | 16.5 | 37.9 | 1.53 | 2.89 | 5.15 | 19.7 | 1.75 | 3.2 | 2.67 | 6.4 | 1.83 | 3.24 | 3.89 | 16.2 | 3.33 | 8.29
2 | CN(CC(N)=O)C(=O)N(CCCl)N=O |  | > 100 |  | > 100 |  | > 100 |  | > 100 |  | > 100 |  | > 100 |  | > 100 |  | > 100 |  | > 100 |  | > 100
3 | CN1CCN(Cc2ccc(NC(=O)c3[nH]ncc3Nc3ncnc4sc5c(c34)CCCC5)cc2)CC1 |  |  | 0.438 | 2 |  |  |  |  | 0.413 | 2.52 | 0.327 | 1.84 | 0.512 | 2.08 |  |  | 0.333 | 1.45 | 0.37 | 1.04
4 | CC(C)=CCC/C(C)=C/CC/C(C)=C/CC/C=C(\C)CC/C=C(\C)CCC(=O)Nc1ccn(C2OC(CO)C(O)C2(F)F)c(=O)n1 (stereo not given) | 0.344 | 28.3 | 0.0853 | 3.51 | 0.0324 | 12.4 | 0.042 | 9.85 | 0.0652 | > 100 | 1.91 | 8.67 | 2.64 | 21.9 | 0.0455 | 3.23 | 12.8 | 27.1 | 0.122 | 2.49
5 | BrCc1ccc(CBr)cc1 | 21.7 | 76.8 | 5.82 | 18 | 10.7 | > 35.4 | 1.99 | 6.92 | 5.52 | 20.9 | 8.96 | 22.4 | 8.29 | 23.3 | 3.38 | 12.9 | 13.9 | 35.1 | 3.1 | 13.3
6 | C[C@@H]1O[C@@H](OC[C@H]2O[C@@H](OCCc3ccc(O)c(O)c3)[C@H](O)[C@@H](O)[C@@H]2OC(=O)/C=C/c2ccc(O)c(O)c2)[C@H](O)[C@H](O)[C@H]1O | > 100 | > 100 | > 100 | > 100 |  |  | > 100 | > 100 | > 100 | > 100 | > 100 | > 100 | > 100 | > 100 | 36.8 | > 100 | > 100 | > 100 | 12.2 | 50.9
